In US9751865B2, “Dihydro-hydantoin derivatives with herbicidal activity” (SYNGENTA PARTICIPATIONS AG, priority 2013, dated 2017):

Legend:
Type in all cases: in vivo
Abutilon theophrasti [1] = experiment: Pre-emergence herbicidal activity, ABUTH; set-up: key: 5=total damage to plant; 0=no damage to plant; conditions: application pre-emergence, 1000 g/Ha, evaluated after 13 days, scale 0-5
Procedure: (§1) Seeds of a variety of test species were sown in standard soil in pots. After cultivation for one day (pre-emergence) under controlled conditions in a glasshouse (at 24/16° C., day/night; 14 hours light; 65% humidity), the plants were sprayed with an aqueous spray solution derived from the formulation of the technical active ingredient in acetone/water (50:50) solution containing 0.5% Tween 20 (polyoxyethelyene sorbitan monolaurate, CAS RN 9005-64-5). The test plants were then grown in a glasshouse under controlled conditions (at 24/16° C., day/night; 14 hours light; 65% humidity) and watered twice daily. After 13 days, the test was evaluated (5=total damage to plant; 0=no damage to plant).

Amaranthus retroflexus [2] = experiment: Pre-emergence herbicidal activity, AMARE; set-up: key: 5=total damage to plant; 0=no damage to plant; conditions: application pre-emergence, 1000 g/Ha, evaluated after 13 days, scale 0-5
Procedure: as §1

Echinochloa crus-galli [3] = experiment: Pre-emergence herbicidal activity, ECHCG; set-up: key: 5=total damage to plant; 0=no damage to plant; conditions: application pre-emergence, 1000 g/Ha, evaluated after 13 days, scale 0-5
Procedure: as §1

Setaria faberi [4] = experiment: Pre-emergence herbicidal activity, SETFA; conditions: application pre-emergence, 1000 g/Ha, evaluated after 13 days, scale 0-5
Procedure: as §1

Alopecurus myosuroides [5] = experiment: Pre-emergence herbicidal activity, ALOMY; conditions: application pre-emergence, 1000 g/Ha, evaluated after 13 days, scale 0-5
Procedure: as §1

Zea mays [6] = experiment: Pre-emergence herbicidal activity, ZEAMX; conditions: application pre-emergence, 1000 g/Ha, evaluated after 13 days, scale 0-5
Procedure: as §1

Abutilon theophrasti [7] = experiment: Post-emergence herbicidal activity, ABUTH; set-up: key: 5=total damage to plant; 0=no damage to plant; conditions: application post-emergence, 1000 g/Ha, evaluated after 13 days, scale 0-5
Procedure: (§2) Seeds of a variety of test species were sown in standard soil in pots. After 8 days cultivation (post-emergence) under controlled conditions in a glasshouse (at 24/16° C., day/night; 14 hours light; 65% humidity), the plants were sprayed with an aqueous spray solution derived from the formulation of the technical active ingredient in acetone/water (50:50) solution containing 0.5% Tween 20 (polyoxyethelyene sorbitan monolaurate, CAS RN 9005-64-5). The test plants were then grown in a glasshouse under controlled conditions (at 24/16° C., day/night; 14 hours light; 65% humidity) and watered twice daily. After 13 days, the test was evaluated (5=total damage to plant; 0=no damage to plant).

Setaria faberi [8] = experiment: Post-emergence herbicidal activity, SETFA; set-up: key: 5=total damage to plant; 0=no damage to plant; conditions: application post-emergence, 1000 g/Ha, evaluated after 13 days, scale 0-5
Procedure: as §2

Amaranthus retroflexus [9] = experiment: Post-emergence herbicidal activity, AMARE; set-up: key: 5=total damage to plant; 0=no damage to plant; conditions: application post-emergence, 1000 g/Ha, evaluated after 13 days, scale 0-5
Procedure: as §2

Echinochloa crus-galli [10] = experiment: Post-emergence herbicidal activity, ECHCG; set-up: key: 5=total damage to plant; 0=no damage to plant; conditions: application post-emergence, 1000 g/Ha, evaluated after 13 days, scale 0-5
Procedure: as §2

Zea mays [11] = experiment: Post-emergence herbicidal activity, ZEAMX; conditions: application post-emergence, 1000 g/Ha, evaluated after 13 days, scale 0-5
Procedure: as §2

Alopecurus myosuroides [12] = experiment: Post-emergence herbicidal activity, ALOMY; set-up: key: 5=total damage to plant; 0=no damage to plant; conditions: application post-emergence, 1000 g/Ha, evaluated after 13 days, scale 0-5
Procedure: as §2

Row | Compound | ABUTH damage score (Abutilon theophrasti [1]) | AMARE damage score (Amaranthus retroflexus [2]) | ECHCG damage score (Echinochloa crus-galli [3]) | SETFA damage score (Setaria faberi [4]) | ALOMY damage score (Alopecurus myosuroides [5]) | ZEAMX damage score (Zea mays [6]) | ABUTH damage score (Abutilon theophrasti [7]) | SETFA damage score (Setaria faberi [8]) | AMARE damage score (Amaranthus retroflexus [9]) | ECHCG damage score (Echinochloa crus-galli [10]) | ZEAMX damage score (Zea mays [11]) | ALOMY damage score (Alopecurus myosuroides [12])
1 | CC1C(O)N(c2cc(C(F)(F)F)n(C)n2)C(=O)N1C (stereo not drawn) [Compound A2, 4-hydroxy-1,5-dimethyl-3-[1-methyl-5-(trifluoromethyl)pyrazol-3-yl]imidazolidin-2-one] | 5 | 5 | 4 | 4 | 4 | 4 | 5 | 5 | 5 | 5 | 4 | 5
2 | CN1CC(O)N(c2cc(C(F)(F)F)n(C)n2)C1=O (stereo not drawn) [Compound A13] | 5 | 5 | 5 | 4 | 4 | 2 | 5 | 5 | 5 | 5 | 4 | 5
